Results taken from ChEMBL document CHEMBL3132769, “Fragment growing to retain or alter the selectivity of anchored kinase hinge-binding fragments” (Medchemcomm, 2014).

Legend:
[1] = target: T1, Calcium/calmodulin-dependent protein kinase type IV (Homo sapiens) (UniProt Q16566); test: Inhibition of human full length CAMK4 expressed in baculovirus assessed as substrate phosphorylation using fluorescence-labelled peptides as substrate at 0.2 uM after 90 mins by microfluidic peptide phosphorylation assay
T1 sequence (whole entry): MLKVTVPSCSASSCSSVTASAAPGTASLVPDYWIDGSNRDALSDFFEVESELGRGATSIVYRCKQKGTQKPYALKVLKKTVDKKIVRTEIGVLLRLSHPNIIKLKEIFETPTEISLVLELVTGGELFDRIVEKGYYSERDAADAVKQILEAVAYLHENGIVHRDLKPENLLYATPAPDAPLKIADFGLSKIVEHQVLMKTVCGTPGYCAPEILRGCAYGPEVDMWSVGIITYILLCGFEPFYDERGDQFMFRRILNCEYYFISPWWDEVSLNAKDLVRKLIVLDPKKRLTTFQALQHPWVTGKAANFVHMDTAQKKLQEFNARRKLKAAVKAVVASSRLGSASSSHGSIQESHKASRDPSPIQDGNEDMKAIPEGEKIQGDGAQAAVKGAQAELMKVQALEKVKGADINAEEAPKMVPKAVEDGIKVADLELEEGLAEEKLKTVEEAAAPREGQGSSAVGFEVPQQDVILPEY

[2] = target: T2, Serine/threonine-protein kinase DCLK2 (Homo sapiens) (UniProt Q8N568); test: Inhibition of human full length DCAMKL2 expressed in baculovirus assessed as substrate phosphorylation using fluorescence-labelled peptides as substrate at 0.1 uM after 90 mins by microfluidic peptide phosphorylation assay
T2 sequence (whole entry): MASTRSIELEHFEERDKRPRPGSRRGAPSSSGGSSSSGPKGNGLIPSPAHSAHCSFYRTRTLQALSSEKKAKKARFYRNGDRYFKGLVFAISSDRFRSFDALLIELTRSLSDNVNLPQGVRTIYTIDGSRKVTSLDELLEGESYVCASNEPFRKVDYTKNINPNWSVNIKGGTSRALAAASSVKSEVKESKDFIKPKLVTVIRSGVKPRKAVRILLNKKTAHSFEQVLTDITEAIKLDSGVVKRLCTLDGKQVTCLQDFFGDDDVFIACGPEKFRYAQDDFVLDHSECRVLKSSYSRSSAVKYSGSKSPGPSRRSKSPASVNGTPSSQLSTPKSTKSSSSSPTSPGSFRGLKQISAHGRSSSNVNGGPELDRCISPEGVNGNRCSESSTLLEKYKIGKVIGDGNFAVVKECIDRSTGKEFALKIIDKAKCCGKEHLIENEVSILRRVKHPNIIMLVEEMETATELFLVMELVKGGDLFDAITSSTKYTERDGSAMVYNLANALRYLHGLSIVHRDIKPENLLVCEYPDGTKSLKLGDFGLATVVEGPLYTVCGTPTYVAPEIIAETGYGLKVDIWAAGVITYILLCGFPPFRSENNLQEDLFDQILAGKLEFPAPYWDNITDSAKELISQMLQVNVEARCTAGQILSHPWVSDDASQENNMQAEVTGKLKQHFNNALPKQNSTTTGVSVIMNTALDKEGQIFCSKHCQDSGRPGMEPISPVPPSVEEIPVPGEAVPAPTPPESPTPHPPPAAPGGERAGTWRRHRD

[3] = target: Tyrosine-protein kinase ABL1 (Homo sapiens) (UniProt P00519); conditions: 0.1 uM
Description: Inhibition of human full-length ABL expressed in baculovirus assessed as substrate phosphorylation using fluorescence-labelled peptides as substrate at 0.1 uM after 90 mins by microfluidic peptide phosphorylation assay

[4] = target: Rho-associated protein kinase 2 (Homo sapiens) (UniProt O75116); test: Inhibition of human ROCK2 catalytic domain expressed in baculovirus assessed as substrate phosphorylation using fluorescence-labelled peptides as substrate at 70 uM after 90 mins by microfluidic peptide phosphorylation assay
Chain of Rho-associated protein kinase 2 (Homo sapiens) (O75116 whole entry, looked up, the tested form may be a part): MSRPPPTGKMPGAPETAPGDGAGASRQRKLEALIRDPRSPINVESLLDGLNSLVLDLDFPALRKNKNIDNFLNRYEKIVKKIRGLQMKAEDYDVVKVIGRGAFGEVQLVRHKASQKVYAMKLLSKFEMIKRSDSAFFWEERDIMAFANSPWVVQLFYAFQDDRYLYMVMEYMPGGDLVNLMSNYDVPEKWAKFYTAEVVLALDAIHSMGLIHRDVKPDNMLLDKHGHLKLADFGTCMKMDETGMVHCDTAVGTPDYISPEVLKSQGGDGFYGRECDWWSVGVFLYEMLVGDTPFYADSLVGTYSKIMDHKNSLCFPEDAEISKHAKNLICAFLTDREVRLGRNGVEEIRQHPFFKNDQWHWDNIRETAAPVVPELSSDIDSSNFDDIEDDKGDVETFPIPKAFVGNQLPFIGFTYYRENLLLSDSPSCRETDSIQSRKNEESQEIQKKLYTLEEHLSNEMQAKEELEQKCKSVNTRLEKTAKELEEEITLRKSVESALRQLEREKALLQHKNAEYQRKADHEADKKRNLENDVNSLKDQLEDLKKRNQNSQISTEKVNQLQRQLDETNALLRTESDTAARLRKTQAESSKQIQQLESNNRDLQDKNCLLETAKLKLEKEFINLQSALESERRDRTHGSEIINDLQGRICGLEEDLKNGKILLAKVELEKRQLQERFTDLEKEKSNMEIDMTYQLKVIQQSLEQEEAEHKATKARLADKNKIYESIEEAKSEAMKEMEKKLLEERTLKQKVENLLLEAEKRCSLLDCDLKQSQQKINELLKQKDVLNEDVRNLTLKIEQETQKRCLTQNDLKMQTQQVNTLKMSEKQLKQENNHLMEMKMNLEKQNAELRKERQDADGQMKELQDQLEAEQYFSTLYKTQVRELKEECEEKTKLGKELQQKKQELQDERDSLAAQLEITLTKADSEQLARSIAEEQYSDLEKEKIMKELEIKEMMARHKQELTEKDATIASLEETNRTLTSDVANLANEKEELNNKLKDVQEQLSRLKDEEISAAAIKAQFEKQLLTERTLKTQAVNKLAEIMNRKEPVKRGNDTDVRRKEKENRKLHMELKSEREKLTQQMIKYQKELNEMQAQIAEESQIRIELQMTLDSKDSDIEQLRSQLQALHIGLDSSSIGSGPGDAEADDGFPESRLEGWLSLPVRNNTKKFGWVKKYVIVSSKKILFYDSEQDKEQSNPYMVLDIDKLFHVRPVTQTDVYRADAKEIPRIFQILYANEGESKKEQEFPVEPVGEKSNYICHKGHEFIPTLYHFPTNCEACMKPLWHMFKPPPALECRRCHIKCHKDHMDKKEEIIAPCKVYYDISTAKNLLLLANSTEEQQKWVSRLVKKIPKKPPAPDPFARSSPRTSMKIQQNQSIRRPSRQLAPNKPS

[5] = test system: T3, Receptor-type tyrosine-protein kinase FLT3 (Homo sapiens), P36888 [D835Y]; test: Inhibition of human FLT3 D835Y mutant catalytic domain expressed in baculovirus assessed as substrate phosphorylation using fluorescence-labelled peptides as substrate at 2 uM after 90 mins by microfluidic peptide phosphorylation assay
T3 sequence (whole entry): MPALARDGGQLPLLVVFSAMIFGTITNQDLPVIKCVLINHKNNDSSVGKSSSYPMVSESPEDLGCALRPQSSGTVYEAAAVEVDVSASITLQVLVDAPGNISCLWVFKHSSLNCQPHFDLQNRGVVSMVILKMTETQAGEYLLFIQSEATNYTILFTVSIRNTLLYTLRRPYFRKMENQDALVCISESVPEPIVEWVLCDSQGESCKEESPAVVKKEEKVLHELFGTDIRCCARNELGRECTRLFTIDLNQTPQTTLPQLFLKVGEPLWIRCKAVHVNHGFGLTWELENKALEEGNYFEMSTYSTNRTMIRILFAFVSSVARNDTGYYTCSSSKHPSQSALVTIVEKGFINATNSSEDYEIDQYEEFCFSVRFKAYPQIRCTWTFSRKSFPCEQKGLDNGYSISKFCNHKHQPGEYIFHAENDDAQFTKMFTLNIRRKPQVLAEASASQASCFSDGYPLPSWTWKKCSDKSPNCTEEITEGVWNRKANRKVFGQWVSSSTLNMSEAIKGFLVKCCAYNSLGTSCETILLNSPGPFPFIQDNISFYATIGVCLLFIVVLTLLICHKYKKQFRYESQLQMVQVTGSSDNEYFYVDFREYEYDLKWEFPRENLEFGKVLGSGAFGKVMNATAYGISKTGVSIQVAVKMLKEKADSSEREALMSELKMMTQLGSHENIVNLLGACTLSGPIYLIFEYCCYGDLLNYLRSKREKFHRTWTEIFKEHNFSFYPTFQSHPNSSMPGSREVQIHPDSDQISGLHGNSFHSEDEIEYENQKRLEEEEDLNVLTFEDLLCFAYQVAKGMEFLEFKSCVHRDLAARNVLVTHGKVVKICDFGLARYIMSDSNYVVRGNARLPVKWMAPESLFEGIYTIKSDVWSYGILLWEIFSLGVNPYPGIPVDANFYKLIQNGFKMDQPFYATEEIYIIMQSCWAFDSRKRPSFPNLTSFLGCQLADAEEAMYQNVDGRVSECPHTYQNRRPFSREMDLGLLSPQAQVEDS

[6] = test system: Tyrosine-protein kinase ABL1 (Homo sapiens), P00519 [T315I]; test: Inhibition of human truncated ABL T315I mutant expressed in baculovirus assessed as substrate phosphorylation using fluorescence-labelled peptides as substrate at 2 uM after 90 mins by microfluidic peptide phosphorylation assay

## Clc1ccc(C2(c3ccc(-c4ncnc5[nH]cnc45)cc3)CCNCC2)cc1
[1]
  inhibition: 74%

## C[C@H](CN(C)C)Oc1nc(Nc2cc3cccc(Cl)c3cn2)cnc1C#N
[2]
  inhibition: 6%
[3]
  inhibition: 0%

## CNCc1ccc(-c2ncnc3[nH]cnc23)cc1
[4]
  inhibition: 88.5%

## NC1CCN(c2ncnc3[nH]ccc23)CC1
[5]
  inhibition: 0%
[6]
  inhibition: 1%
